In patent US11596639B2, “Substituted indole Mcl-1 inhibitors” (Vanderbilt University, priority 2016, dated 2023):
Where two headings read alike, the source gives them in different places.

How the values were obtained:
[1] = system: H929 human cancer cell lines; test: Cellular viability / proliferation (Cell TiterGlo, 72 h); type: cell-based
Outline: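 1,000 cells/well, 10% FBS medium; compound added at 24 h, 2-fold dilutions from 50 μM top, DMSO <1% final. 72 h exposure, CellTiterGlo 30 min RT dark, luminescence read. IC50 by 4-parameter fit.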

Mcl-1 = Mcl-1 (Homo sapiens (Human), UniProt Q07820); test: Fluorescence polarization anisotropy (FPA) competition assay, FITC-Bak or FITC-Bim BH3 peptide; type: binding; settings: read-out: Ki for Inhibition of Mcl-1 by FPA assay
[2] = Homo sapiens, NCI-H929, 72 h, read-out: GI50 on cellular proliferation of H929 human cancer cell lines, H929 cells, 72 h, Cell TiterGlo, 10% FBS
[3] = H929 cells, 72 h, Cell TiterGlo, 10% FBS, read-out: GI50 on cellular proliferation of H929 human cancer cell lines

Mcl-1, sequence (Q07820 172-327): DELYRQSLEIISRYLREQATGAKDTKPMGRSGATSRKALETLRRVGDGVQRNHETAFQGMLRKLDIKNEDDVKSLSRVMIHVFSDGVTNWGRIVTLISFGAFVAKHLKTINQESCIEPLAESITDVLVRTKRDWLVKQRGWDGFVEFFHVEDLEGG

| SMILES | GI50 [1, 2] | Ki (Mcl-1) | GI50 [1, 3] | GI50 ([1]; read-out: GI50 on cellular proliferation of H929 human cancer cell lines, H929 cells, 72 h, Cell TiterGlo, 10% FBS) |
| --- | --- | --- | --- | --- |
| Cc1cc(OCCCc2c3n(c4c(-c5c(C)nn(C)c5C)c(Cl)ccc24)[C@H](C)CN(c2ccc4cnoc4c2)C3=O)cc(C)c1Cl [Example 115, (R)-2-(benzo[d]isoxazol-6-yl)-7-chloro-10-(3-(4-chloro-3,5-dimethylphenoxy)propyl)-4-methyl-6-(1,3,5-trimethyl-1H-pyrazol-4-yl)-3,4-dihydropyrazino[1,2-a]indol-1(2H)-one] | 5100 nM | 3.1 nM | – | – |
| Cc1cc(OCCCc2c3n(c4c(-c5c(C)nn(C)c5C)c(Cl)ccc24)[C@H](C)CN(c2cn(C)c4ccc(C(=O)NCc5cccnc5)cc24)C3=O)cc(C)c1Cl [Example 287, 3-[(4R)-7-chloro-10-[3-(4-chloro-3,5-dimethyl-phenoxy)propyl]-4-methyl-1-oxo-6-(1,3,5-trimethylpyrazol-4-yl)-3,4-dihydropyrazino[1,2-a]indol-2-yl]-1-methyl-N-(3-pyridylmethyl)indole-5-carboxamide] | 1600 nM | 3 nM | – | – |
| Cc1cc(OCCCc2c3n(c4c(-c5c(C)nn(C)c5C)c(Cl)ccc24)[C@H](C)CN(c2cn(C)c4ccc(-c5nnn[nH]5)cc24)C3=O)cc(C)c1Cl [Example 251, (R)-7-Chloro-10-(3-(4-chloro-3,5-dimethylphenoxy)propyl)-4-methyl-2-(1-methyl-5-(1H-tetrazol-5-yl)-1H-indol-3-yl)-6-(1,3,5-trimethyl-1H-pyrazol-4-yl)-3,4-dihydropyrazino[1,2-a]indol-1(2H)-one] | 250 nM | < 1 nM | – | – |
| Cc1cc(OCCCc2c3n(c4c(-c5c(C)nn(C)c5C)c(Cl)ccc24)[C@H](C)CN(c2cccc4cc(C(=O)O)n(Cc5nccs5)c24)C3=O)cc(C)c1Cl [Example 298, 7-[(4R)-7-chloro-10-[3-(4-chloro-3,5-dimethyl-phenoxy)propyl]-4-methyl-1-oxo-6-(1,3,5-trimethylpyrazol-4-yl)-3,4-dihydropyrazino[1,2-a]indol-2-yl]-1-(thiazol-2-ylmethyl)indole-2-carboxylic acid] | 290 nM | < 1 nM | – | – |
| Cc1cc(OCCCc2c3n(c4c(-c5c(C)nn(C)c5C)c(Cl)ccc24)[C@H](C)CN(c2cccc4cc(-c5nnco5)n(C)c24)C3=O)cc(C)c1Cl [Example 341, (R)-7-Chloro-10-(3-(4-chloro-3,5-dimethylphenoxy)propyl)-4-methyl-2-(1-methyl-2-(1,3,4-oxadiazol-2-yl)-1H-indol-7-yl)-6-(1,3,5-trimethyl-1H-pyrazol-4-yl)-3,4-dihydropyrazino[1,2-a]indol-1(2H)-one] | 920 nM | 4.2 nM | – | – |
| Cc1cc(OCCCc2c3n(c4c(-c5c(C)nn(C)c5C)c(Cl)ccc24)[C@H](C)CN(c2ccc4c(c2)cc(C(=O)O)n4C)C3=O)cc(C)c1Cl [Example 114, (R)-5-(7-Chloro-10-(3-(4-chloro-3,5-dimethylphenoxy)propyl)-4-methyl-1-oxo-6-(1,3,5-trimethyl-1H-pyrazol-4-yl)-3,4-dihydropyrazino[1,2-a]indol-2(1H)-yl)-1-methyl-1H-indole-2-carboxylic acid] | 840 nM | < 1 nM | – | – |
| Cc1cc(OCCCc2c3n(c4c(-c5c(C)n[nH]c5C)c(Cl)ccc24)CCCN(c2cccc4cccnc24)C3=O)cc(C)c1Cl [Example 150, 8-Chloro-11-(3-(4-chloro-3,5-dimethylphenoxy)propyl)-7-(3,5-dimethyl-1H-pyrazol-4-yl)-2-(quinolin-8-yl)-2,3,4,5-tetrahydro-1H-[1,4]diazepino[1,2-a]indol-1-one] | – | 13 nM | 5100 nM | – |
| Cc1cc(OCCCc2c3n(c4c(-c5c(C)nn(C)c5C)c(Cl)ccc24)[C@H](C)CN(c2cn(C)c4ccc(-c5cnccn5)cc24)C3=O)cc(C)c1Cl [Example 430, (R)-7-Chloro-10-(3-(4-chloro-3,5-dimethylphenoxy)propyl)-4-methyl-2-(1-methyl-5-(pyrazin-2-yl)-1H-indol-3-yl)-6-(1,3,5-trimethyl-1H-pyrazol-4-yl)-3,4-dihydropyrazino[1,2-a]indol-1(2H)-one] | 1400 nM | 1.9 nM | – | – |
| Cc1cc(OCCCc2c3n(c4c(-c5c(C)nn(C)c5C)c(Cl)ccc24)[C@H](C)CN(c2coc4ccccc24)C3=O)cc(C)c1Cl (single isomer, unassigned) [Example 246] | – | 8.6 nM | – | 5300 nM |
| Cc1cc(OCCCc2c3n(c4c(-c5c(C)nn(C)c5C)c(Cl)ccc24)[C@H](C)CN(c2ccc(F)c4c(C(=O)O)cn(C)c24)C3=O)cc(C)c1Cl [Example 447, (R)-7-(7-Chloro-10-(3-(4-chloro-3,5-dimethylphenoxy)propyl)-4-methyl-1-oxo-6-(1,3,5-trimethyl-1H-pyrazol-4-yl)-3,4-dihydropyrazino[1,2-a]indol-2(1H)-yl)-4-fluoro-1-methyl-1H-indole-3-carboxylic acid] | 340 nM | < 1 nM | – | – |
| Cc1cc(OCCCc2c3n(c4c(-c5c(C)nn(C)c5C)c(Cl)ccc24)[C@H](C)CN(c2cn(C)c4cc(C(N)=O)ccc24)C3=O)cc(C)c1Cl [Example 277, 3-[(4R)-7-chloro-10-[3-(4-chloro-3,5-dimethyl-phenoxy)propyl]-4-methyl-1-oxo-6-(1,3,5-trimethylpyrazol-4-yl)-3,4-dihydropyrazino[1,2-a]indol-2-yl]-1-methyl-indole-6-carboxamide] | 1400 nM | 6.6 nM | – | – |
| COCCOc1ccc(N2C[C@@H](C)n3c(c(CCCOc4cc(C)c(Cl)c(C)c4)c4ccc(Cl)c(-c5c(C)nn(C)c5C)c43)C2=O)c2cc(C(=O)O)n(C)c12 [Example 323, (M, R)-4-(7-Chloro-10-(3-(4-chloro-3,5-dimethylphenoxy)propyl)-4-methyl-1-oxo-6-(1,3,5-trimethyl-1H-pyrazol-4-yl)-3,4-dihydropyrazino[1,2-a]indol-2(1H)-yl)-7-(2-methoxyethoxy)-1-methyl-1H-indole-2-carboxylic acid] | – | < 1 nM | 1500 nM | – |
| Cc1cc(OCCCc2c3n(c4c(-c5c(C)nn(C)c5C)c(Cl)ccc24)[C@H](C)CN(c2cn(C)c4c(C#N)cccc24)C3=O)cc(C)c1Cl [Example 209, (R)-3-(7-Chloro-10-(3-(4-chloro-3,5-dimethylphenoxy)propyl)-4-methyl-1-oxo-6-(1,3,5-trimethyl-1H-pyrazol-4-yl)-3,4-dihydropyrazino[1,2-a]indol-2(1H)-yl)-1-methyl-1H-indole-7-carbonitrile] | 3500 nM | 1.2 nM | – | – |
| Cc1cc(OCCCc2c3n(c4c(-c5c(C)nn(C)c5C)c(Cl)ccc24)[C@H](C)CN(c2cc(C(C)C)cc4cc(C(=O)O)n(Cc5ccccn5)c24)C3=O)cc(C)c1Cl [Example 359, (R)-7-(7-Chloro-10-(3-(4-chloro-3,5-dimethylphenoxy)propyl)-4-methyl-1-oxo-6-(1,3,5-trimethyl-1H-pyrazol-4-yl)-3,4-dihydropyrazino[1,2-a]indol-2(1H)-yl)-5-isopropyl-1-(pyridin-2-ylmethyl)-1H-indole-2-carboxylic acid] | 290 nM | 1.4 nM | – | – |
| Cc1cc(OCCCc2c3n(c4c(-c5c(C)nn(C)c5C)c(Cl)ccc24)[C@H](C)CN(c2cn4cccc(C(=O)O)c4n2)C3=O)cc(C)c1Cl [Example 112, (R)-2-(7-chloro-10-(3-(4-chloro-3,5-dimethylphenoxy)propyl)-4-methyl-1-oxo-6-(1,3,5-trimethyl-1H-pyrazol-4-yl)-3,4-dihydropyrazino[1,2-a]indol-2(1H)-yl)imidazo[1,2-a]pyridine-8-carboxylic acid] | 5300 nM | 3.3 nM | – | – |
| Cc1cc(N2C[C@@H](C)n3c(c(CCCOc4cc(C)c(Cl)c(C)c4)c4ccc(Cl)c(-c5c(C)n[nH]c5C)c43)C2=O)c2c(c1)cc(C(=O)O)n2C [Example 400, (R)-7-(7-chloro-10-(3-(4-chloro-3,5-dimethylphenoxy)propyl)-6-(3,5-dimethyl-1H-pyrazol-4-yl)-4-methyl-1-oxo-3,4-dihydropyrazino[1,2-a]indol-2(1H)-yl)-1,5-dimethyl-1H-indole-2-carboxylic acid] | 430 nM | 1.4 nM | – | – |
| Cc1cc(OCCCc2c3n(c4c(-c5c(C)ncnc5C)c(Cl)ccc24)CCCN(c2ccc(C(=O)O)c4ncccc24)C3=O)cc(C)c1Cl [Example 147, 5-[8-Chloro-11-[3-(4-chloro-3,5-dimethyl-phenoxy)propyl]-7-(4,6-dimethylpyrimidin-5-yl)-1-oxo-4,5-dihydro-3H-[1,4]diazepino[1,2-a]indol-2-yl]quinoline-8-carboxylic acid] | 4300 nM | 1.8 nM | – | – |
| COc1cccc(Cn2c(C(=O)O)cc3cccc(N4C[C@@H](C)n5c(c(CCCOc6cc(C)c(Cl)c(C)c6)c6ccc(Cl)c(-c7c(C)nn(C)c7C)c65)C4=O)c32)n1 [Example 360, (R)-7-(7-Chloro-10-(3-(4-chloro-3,5-dimethylphenoxy)propyl)-4-methyl-1-oxo-6-(1,3,5-trimethyl-1H-pyrazol-4-yl)-3,4-dihydropyrazino[1,2-a]indol-2(1H)-yl)-1-((6-methoxypyridin-2-yl)methyl)-1H-indole-2-carboxylic acid] | 2500 nM | 2.5 nM | – | – |
| Cc1cc(OCCCc2c3n(c4c(-c5c(C)nn(C)c5C)c(Cl)ccc24)[C@H](C)CN(c2cccc4cc(C(=O)O)n(Cc5cncnc5)c24)C3=O)cc(C)c1Cl [Example 311, 7-[(4R)-7-chloro-10-[3-(4-chloro-3,5-dimethyl-phenoxy)propyl]-4-methyl-1-oxo-6-(1,3,5-trimethylpyrazol-4-yl)-3,4-dihydropyrazino[1,2-a]indol-2-yl]-1-(pyrimidin-5-ylmethyl)indole-2-carboxylic acid] | 3400 nM | < 1 nM | – | – |
